Values joined by “and” are separate entries in the source; they are usually repeats but may differ in a detail not shown here. Identical values can stand only once.
Test system: P. falciparum 3D7 growth, pLDH absorbance
Assay: P. falciparum 3D7 growth inhibition, dose response, strain 3D7 (AID 2305)

Row | SMILES | IC50
1 | Cc1nc2ccc3ccc(CNc4ccc5c(c4)CN([C@H](CCC(=O)O)C(=O)O)C5=O)cc3c2c(=O)[nH]1 | 860 nM
2 | CC(=O)Nc1ccc(C(=O)Nc2cccc(-c3ccc(-c4nc5ccc(F)cc5[nH]4)cc3)c2)cn1 | 170 nM
3 | Cc1cc(NC(=O)Nc2ccc(Oc3ccccc3)cc2)c2ccccc2n1 | 840 nM
4 | COC(=O)c1cc(/C(C)=N/Nc2nc3ccccc3[nH]2)ccc1O | 680 nM
5 | N#Cc1ccc2c(c1)CCN(CCC1CCC(NC(=O)/C=C/c3cc(Br)cs3)CC1)CC2 (stereo unspecified) | 1000 nM
6 | CC(=O)N(C)c1cccc(C(=O)Nc2cccc(-c3cccc(-c4nc5ccc(C(F)(F)F)cc5[nH]4)c3)c2)c1 | 240 nM
7 | COc1cc(Cc2cnc(N)nc2N)ccc1OCC(=O)Nc1ccc(C)cc1 | 480 nM
8 | COc1ccccc1C1CCN(Cc2csc(NC(=O)c3ccc(-c4ccc(C(F)(F)F)cc4)cc3)n2)CC1 | 950 nM
9 | Cc1ccc(Cn2ncc(NC3CCNCC3)c(Cl)c2=O)cc1NC(=O)Nc1ccc(-c2ccccc2)cc1 | 660 nM
10 | CCOc1ccc(C2CCN(CCCCNC(=O)c3ccc(NC(=O)c4ccc(Cl)cc4)cc3)CC2)c(OCC)c1 | 680 nM
11 | COC(=O)c1ccc2c(-c3nc4ccc(OC)cc4[nH]3)c[nH]c2c1 | 880 nM
12 | COc1ccccc1C1CCN(C2CCC(NC(=O)c3cc(-c4ccc(Cl)cc4)cs3)CC2)CC1 (stereo unspecified) | 380 nM
13 | COc1cccc(CNc2noc(-c3c(-c4ccccc4)noc3C)n2)c1OC | 870 nM
14 | CN(C)CCOc1ccc(-c2cc(-c3ccc(Cl)c(O)c3)c(-c3ccnc(N)n3)o2)cc1 | 1320 nM
15 | COc1ccc(Cc2cnc(N)nc2N)cc1OCCCOc1ccccc1 | 910 nM
16 | O=C(Nc1ccc(Cl)cc1)c1ccc(S(=O)(=O)NCC2CCN(CC3CCCCC3)CC2)cc1 | 860 nM
17 | CCOc1cc2ncnc(Nc3ccc(OCc4ccccc4OC)c(OC)c3)c2cc1OCC | 880 nM
18 | Cc1cccc2[nH]c(-c3ccc(-c4cccc(CNCCNC(=O)c5ccnn5C)c4)s3)nc12 | 220 nM
19 | CCCCCCN(CCCCCC)CCCCNc1c2ccc(Cl)cc2nc2ccc(OC)cc12 | 540 nM
20 | C[C@]12CC3CC(Nc4nc(N5CCOCC5)nc5ccccc45)(C1)C[C@@](C)(C3)C2 | 940 nM
21 | Oc1ccc2c(CNC3CCCCC3)c(O)ccc2c1CNC1CCCCC1 | 40 nM
22 | CC(C)Oc1ccc2c(c1)OC(c1ccccc1)(C(F)(F)F)NC2=O (stereo unspecified) | 140 nM
23 | COc1ccc2nccc(N3CCN(CCNCc4ccc5c(n4)NC(=O)CO5)CC3)c2c1 | 1160 nM
24 | CCCCCCN1CCC(NCc2ccc(OCCN3CCCC3)cc2)CC1 | 720 nM

Row | SMILES | IC50
25 | O=C1CCCN1CCCNCc1cccc(-c2ccc(-c3nc4ccccc4[nH]3)s2)c1 | 860 nM
26 | COc1ccc(N2CCN(CCCCNC(=O)c3ccc(NC(=O)c4cc(C(F)(F)F)cc(C(F)(F)F)c4)cc3)CC2)cc1OC | 220 nM
27 | O=C(Nc1cccc(CN2CCN(C(=O)c3cccc(F)c3)CC2)c1)c1cccs1 | 370 nM
28 | NC(=NCCCCCCN=C(N)/N=C(\N)c1ccc(Cl)cc1)/N=C(\N)c1ccc(Cl)cc1 | 210 nM
29 | CCCCNC[C@@H](O)[C@H](Cc1ccccc1)NC(=O)c1cc2c3c(c1)c(CC)cn3CCS(=O)(=O)N2C | 200 nM
30 | CCCN1CCN(Cc2ccc(-c3ccc(-c4nc5ccccc5[nH]4)s3)cc2)CC1 | 610 nM
31 | CCCC(CNCc1cccc(SC(F)(F)F)c1)CNc1cc(=O)c2ccccc2[nH]1 (stereo unspecified) | 710 nM
32 | O=C(N[C@H]1CCN(Cc2ccc(OCCCN3CCCCC3)cc2)C1)c1cc(Cl)cc(Cl)c1 | 620 nM
33 | Cc1cc(F)ccc1C1CCN(CCCCNC(=O)c2ccc(NC(=O)c3ccc(Cl)cc3)cc2)CC1 | 690 nM
34 | CCCCCCn1ccc2c3c(N)nc(N)nc3ccc21 | 150 nM
35 | COC(=O)c1ccc2nc(-c3ccc(/C=C/C(=O)NCc4ccc(Cl)c(Cl)c4)cc3)[nH]c2c1 | 1340 nM
36 | Cc1cccc(C)c1N1CCN(C2CCC(NC(=O)/C=C/c3ccccc3)CC2)CC1 (stereo unspecified) | 1180 nM
37 | COc1cc(C(=O)Nc2ccc(-c3nc4ccccc4[nH]3)cc2)cc(OC)c1OC | 980 nM
38 | O=C(C=Cc1ccc(Cl)c(Cl)c1)NCCCCCN1CCCC(CCCNC(=O)[C@@H]2C[C@H]2c2ccccc2)C1 (stereo partly specified) | 1130 nM
39 | CC(=O)N1CCC(C(=O)Nc2ccc(-c3cccc(-c4nc5c(C)cccc5[nH]4)c3)cc2)CC1 | 310 nM
40 | CCN(CC)CCCNc1c2ccccc2nc2ccccc12 | 750 nM
41 | Oc1ccc(CCNc2nc(NCc3cccc(-c4cc(C(F)(F)F)ccc4Cl)c3)nc(N3CCNCC3)n2)cc1 | 1780 nM
42 | Cc1ccc(C(C)C)c(Oc2ccc3nc(N)nc(N)c3c2)c1 | 10 nM
43 | COc1ccc2nc(C)cc(NN=Cc3cccc([N+](=O)[O-])c3)c2c1 | 730 nM
44 | CN1CCN(C(C(=O)NCc2cc(Cl)cc(Cl)c2)c2ccc(NC(=O)Nc3ccccc3)cc2)CC1 (stereo unspecified) | 690 nM
45 | OCC(CO)(CO)NCc1ccc2c3c(cccc13)-c1ccccc1-2 | 1260 nM
46 | COc1cc(C(C)C)ccc1N1CCN(CCCCNC(=O)c2ccc(NC(=O)c3ccc(Cl)cc3)cc2)CC1 | 580 nM
47 | COc1cc(OC)c2c(c1Cl)O[C@]1(C2=O)C(=O)C(Cc2ccccc2)(Cc2ccccc2)C(=O)C[C@H]1C | 970 nM
48 | Cc1ccc(S(=O)(=O)N2CCN(C(=O)c3cc(-c4ccccc4)n[nH]3)CC2)cc1 | 600 nM

Row | SMILES | IC50
49 | Cc1ccc(CCC(C)NCC(O)c2cccc(Cl)c2)cc1 (stereo unspecified) | 800 nM
50 | COc1ccc2nccc(NN=Cc3cccc(C)n3)c2c1 | 760 nM
51 | O=C(NC1CCCCC1)N(Cc1cccc(-c2cccc(CNC3CCCC3)c2)c1)C1CCN(Cc2ccccc2)CC1 | 740 nM
52 | O=C(Nc1cccc(CN2CCCN(Cc3ccsc3)CC2)c1)c1ccc(-c2ccccc2)cc1 | 1340 nM
53 | CN1CCC(NCc2ccc(-c3cccc(S(=O)(=O)NCCc4ccccn4)c3)cc2)CC1 | 990 nM
54 | Cc1nnsc1C(=O)Nc1cccc(-c2csc(-c3nc4ccccc4[nH]3)c2)c1 | 350 nM
55 | Cc1cc(Nc2ccccc2)nc(Nc2ccccc2)n1 | 800 nM
56 | COc1ccc(OC)c([C@H](O)[C@@H](C)NCc2cc(Cl)ccc2O)c1 | 380 nM
57 | CCCc1ccc(NC(=O)c2ccc(CN3CCCN(CC4CCCCC4)CC3)cc2)cc1 | 520 nM
58 | COc1cccc(CNC[C@@H](O)[C@H](Cc2ccccc2)NC(=O)c2cc(OC(C)C)cc(N3CCCCS3(=O)=O)c2)c1 | 730 nM
59 | C=C[C@H]1CN2CC[C@H]1C[C@H]2[C@H](OS(=O)(=O)O)c1ccnc2ccccc12 | 620 nM
60 | COCCNCc1cccc(-c2ccc3c(Nc4ccc(Oc5ccccc5)cc4)ccnc3c2)c1 | 520 nM
61 | COc1cccc(NC(=O)[C@H](C)n2c(=O)[nH]c3ccccc3c2=O)c1 | 760 nM
62 | O=C(NC1CCC1)C1CCN(C(c2ccccc2)c2cc(F)cc(F)c2)CC1 (stereo unspecified) | 800 nM
63 | CC(C)c1ccc(-c2nc3ncc(Cl)cc3[nH]2)cc1 | 860 nM
64 | O=C(/C=C/c1ccc(Cl)c(Cl)c1)NCCCCCN1CCCN(C(=O)Nc2ccc(OC(F)F)cc2)CC1 | 830 nM
65 | CC(=O)Nc1cccc(CNc2cc(C)nc(Nc3ccc(C)cc3)n2)c1 | 1140 nM
66 | Cc1ccccc1C1CCN(C2CCC(NC(=O)/C=C/c3cccc(Cl)c3F)CC2)CC1 (stereo unspecified) | 1140 nM
67 | CCOc1c(CNCCCNc2cc(=O)c3ccccc3[nH]2)cc(I)cc1C(C)(C)C | 700 nM
68 | CCCCCCCCN1CCN(CCCCCCNc2c3ccccc3nc3ccccc23)CC1 | 160 nM
69 | Cc1cc(N[C@@H](Cc2ccccc2)C(=O)NCc2cccc(F)c2)nc(NCCc2cccnc2)n1 | 1340 nM
70 | CC(C)(CN)c1cc(-c2ccc(Cl)c(O)c2)c(-c2ccncc2)o1 | 1140 nM
71 | NC1=NC(c2ccccc2)(c2cccc(O)c2)C(=O)N1CCCc1ccccc1 (stereo unspecified) | 1230 nM and 840 nM
